± gives the expanded uncertainty stated by the source.
Experiment: xn = mol fraction of the nth substance listed
Details: 303 K, 101 kPa, Liquid; for speed of sound: Linear variable-path acoustic interferometer; for mass density: Pycnometric method

CC(C)=O [acetone] + Cc1ccccc1
speed of sound [m/s]
Details	x1 = 0.135	x1 = 0.27	x1 = 0.331	x1 = 0.456	x1 = 0.51	x1 = 0.605	x1 = 0.745	x1 = 0.831	x1 = 0.937
Frequency=1 MHz	946 ± 2	–	–	–	–	–	–	–	–
Frequency=3 MHz	1040 ± 2	1032 ± 2	1020 ± 2	1000 ± 2	981 ± 2	965 ± 2	943 ± 2	–	1028 ± 2
Frequency=5 MHz	1150 ± 2	1130 ± 2	1102 ± 2	1080 ± 2	1040 ± 2	1010 ± 2	1000 ± 2	1150 ± 2	1230 ± 2

Details	mass density [kg/m3]
x1 = 0.135	850 ± 1
x1 = 0.27	840 ± 1
x1 = 0.331	836 ± 1
x1 = 0.456	827 ± 1
x1 = 0.51	823 ± 1
x1 = 0.605	817 ± 1
x1 = 0.745	807 ± 1
x1 = 0.831	800 ± 1
x1 = 0.937	793 ± 1
x1 = 1	789 ± 1

Cc1ccccc1 [toluene] + CC(C)=O
Details	mass density [kg/m3]
x2 = 0	860 ± 1

Reference: the NIST ThermoML archive (doi:10.1007/s10765-013-1527-7)
